Measurements taken from patent US20050282818A1, “Ubiquitin ligase inhibitors” (Rigel Pharmaceuticals, Inc., priority 2004, published 2005).
Like-named read-outs stand apart in the source and are kept apart here.

Assays:
[1] = target: T1, TRAF6/Uev1A/Ubc13 (Homo sapiens, UniProt Q9Y4K3); test: TRAF6/Uev1A/Ubc13 plate-based ubiquitin ligase assay; assay type: biochemical
T1 sequence (Q9Y4K3 1-522): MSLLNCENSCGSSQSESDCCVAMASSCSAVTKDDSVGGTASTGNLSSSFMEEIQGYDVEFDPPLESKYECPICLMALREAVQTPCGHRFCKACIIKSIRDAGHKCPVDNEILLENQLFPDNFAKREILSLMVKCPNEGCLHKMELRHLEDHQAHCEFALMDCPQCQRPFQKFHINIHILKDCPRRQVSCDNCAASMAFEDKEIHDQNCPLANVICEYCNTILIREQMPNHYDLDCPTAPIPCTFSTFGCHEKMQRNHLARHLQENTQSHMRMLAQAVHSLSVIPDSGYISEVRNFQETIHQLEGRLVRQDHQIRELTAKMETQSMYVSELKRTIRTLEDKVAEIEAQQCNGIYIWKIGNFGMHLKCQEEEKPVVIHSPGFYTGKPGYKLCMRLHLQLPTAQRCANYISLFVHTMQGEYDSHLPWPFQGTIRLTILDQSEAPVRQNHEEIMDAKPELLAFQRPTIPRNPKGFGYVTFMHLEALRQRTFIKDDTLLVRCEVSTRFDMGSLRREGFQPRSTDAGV
In short: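 Ligase activity was read as luminescence from anti-Flag/HRP detection of Flag-ubiquitin bound to casein-blocked Ni-plates alongside His-ubiquitin after a 1 h room-temperature reaction. Buffer: 62.5 mM Tris pH 7.5, 6.25 mM MgCl2, 1.0 mM DTT, 2 μM ATP; E1, Uev1a/Ubc13 and TRAF6 added last to start. IC50s derived across compound concentrations.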

[2] = tested on: A549 cells; test: Cell proliferation PAD assay, A549; assay type: cell-based; conditions: Homo sapiens, 48 hours
In short: (§1)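 2,000 cells/well; compound added at 24 h (duplicate, 6.3-fold series, 10 mM stock, 500× dilution into wells); 48 h, 37 °C/5% CO2. Formamide fix, DAPI stain, image-based counts of live (proliferation), apoptotic, dead cells.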

[3] = tested on: H1299 cells; test: Cell proliferation PAD assay, H1299; assay type: cell-based; conditions: Homo sapiens, 48 hours
In short: as §1

[4] = NCI-H1299, 6pt, read-out: H1299 6pt
[5] = NCI-H1299, 3pt, read-out: H1299 3pt

| SMILES | IC50 [1] | IC50 ([2]; 6pt, read-out: A549 6pt) | IC50 [3, 4] | IC50 ([2]; 3pt, read-out: A549 3pt) | IC50 [3, 5] |
| --- | --- | --- | --- | --- | --- |
| COc1cc(NS(=O)(=O)c2c(Cl)ccc3nonc23)c(OC)cc1Cl [compound 343, 5-chloro-N-(4-chloro-2,5-dimethoxyphenyl)-2,1,3-benzoxadiazole-4-sulfonamide] | ≥ 20 µM | 1 to 20 µM | 1 to 20 µM |  |  |
| O=C(c1ccc(F)cc1)C1CCN(c2ccc([N+](=O)[O-])c3nonc23)CC1 [compound 142, (4-fluorophenyl)[1-(7-nitro-2,1,3-benzoxadiazol-4-yl)piperidin-4-yl]methanone] | 1 to 20 µM |  |  | ≥ 20 µM | ≥ 20 µM |
| COc1cc(Nc2ccc3nonc3c2S(=O)(=O)Nc2cc(OC)c(Cl)cc2OC)c(OC)cc1Cl [compound 344, N-(4-chloro-2,5-dimethoxyphenyl)-5-([4-chloro-2,5-dimethoxyphenyl]amino)-2,1,3-benzoxadiazole-4-sulfonamide] | ≥ 20 µM | ≥ 20 µM | ≥ 20 µM |  |  |
| O=S(=O)(Nc1ccc2cn[nH]c2c1)c1ccc(Cl)c2nonc12 [compound 220, 7-chloro-N-1 H-indazol-6-yl-2,1,3-benzoxadiazole-4-sulfonamide] | ≥ 20 µM | 1 to 20 µM | 1 to 20 µM | 1 to 20 µM | 1 to 20 µM |
| O=S(=O)(c1ccc(Cl)c2nonc12)N1CCN(c2ncccn2)CC1 [compound 184, 4-chloro-7-[(4-pyrimidin-2-ylpiperazin-1-yl)sulfonyl]-2,1,3-benzoxadiazole] | ≥ 20 µM | ≥ 20 µM | ≥ 20 µM | 1 to 20 µM | 1 to 20 µM |
| N#CC1(c2ccccc2)CCN(c2ccc([N+](=O)[O-])c3nonc23)CC1 [compound 141, 1-(7-nitro-2,1,3-benzoxadiazol-4-yl)-4-phenylpiperidine-4-carbonitrile] | 1 to 20 µM |  |  | ≥ 20 µM | ≥ 20 µM |
| O=[N+]([O-])c1ccc(SCCO)c2nonc12 [compound 150, 2-[(7-nitro-2,1,3-benzoxadiazol-4-yl)thio]ethanol] | ≥ 20 µM | < 1 µM | < 1 µM | < 1 µM | 1 to 20 µM |
| O=[N+]([O-])c1ccc(N2CCC(O)(c3ccc(Cl)cc3)CC2)c2nonc12 [compound 159, 4-(4-chlorophenyl)-1-(7-nitro-2,1,3-benzoxadiazol-4-yl)piperidin-4-ol] | 1 to 20 µM |  |  |  |  |
| N#Cc1ccccc1N1CCN(S(=O)(=O)c2c(Cl)ccc3nonc23)CC1 [compound 180, 2-{4-[(5-chloro-2,1,3-benzoxadiazol-4-yl)sulfonyl]piperazin-1-yl}benzonitrile] | ≥ 20 µM | ≥ 20 µM | ≥ 20 µM | 1 to 20 µM | 1 to 20 µM |
| O=S(=O)(c1c(N2CCC(Oc3ccccc3C(F)(F)F)CC2)ccc2nonc12)N1CCC(Oc2ccccc2C(F)(F)F)CC1 [compound 340, 5-[4-(2-{trifluoromethyl}phenoxy)piperidin-1-yl]-4-{[4-(2-{trifluoromethyl}phenoxy)piperidin-1-yl]sulfonyl}-2,1,3-benzoxadiazole] | ≥ 20 µM | 1 to 20 µM | 1 to 20 µM |  |  |
| COC(=O)c1ccc(NS(=O)(=O)c2c(Cl)ccc3nonc23)cc1 [compound 178, methyl 4-{[(5-chloro-2,1,3-benzoxadiazol-4-yl)sulfonyl]amino}benzoate] | ≥ 20 µM | ≥ 20 µM | < 1 µM | 1 to 20 µM | 1 to 20 µM |
| CC1CC(C)CN(S(=O)(=O)c2ccc(Cl)c3nonc23)C1 (stereo not shown) [compound 192, 4-chloro-7-[(3,5-dimethylpiperidin-1-yl)sulfonyl]-2,1,3-benzoxadiazole] | ≥ 20 µM | ≥ 20 µM | ≥ 20 µM | 1 to 20 µM | 1 to 20 µM |
| O=S(=O)(Nc1ccc(F)c(F)c1)c1ccc(Cl)c2nonc12 [compound 262, 7-chloro-N-(3,4-difluorophenyl)-2,1,3-benzoxadiazole-4-sulfonamide] | ≥ 20 µM |  |  | 1 to 20 µM | 1 to 20 µM |
| CC1CC(C)CN(c2ccc([N+](=O)[O-])c3nonc23)C1 (stereo not shown) [compound 144, 4-(3,5-dimethylpiperidin-1-yl)-7-nitro-2,1,3-benzoxadiazole] | 1 to 20 µM |  |  |  | ≥ 20 µM |
| Cc1ccc(Cl)cc1N1CCN(c2ccc([N+](=O)[O-])c3nonc23)CC1 [compound 145, 4-[4-(5-chloro-2-methylphenyl)piperazin-1-yl]-7-nitro-2,1,3-benzoxadiazole] | 1 to 20 µM |  |  |  | ≥ 20 µM |

Results, then the compound that gave them:

| IC50 [1] | IC50 ([2]; 6pt, read-out: A549 6pt) | IC50 [3, 4] | IC50 ([2]; 3pt, read-out: A549 3pt) | IC50 [3, 5] | SMILES |
| --- | --- | --- | --- | --- | --- |
| 1 to 20 µM | 1 to 20 µM | 1 to 20 µM | ≥ 20 µM | ≥ 20 µM | O=[N+]([O-])c1ccc(N2CCN(c3cc(C(F)(F)F)ccn3)CC2)c2nonc12 [compound 90, 4-nitro-7-{4-[4-(trifluoromethyl)pyridin-2-yl]piperazin-1-yl}-2,1,3-benzoxadiazole] |
| 1 to 20 µM | 1 to 20 µM | < 1 µM |  |  | COc1cc(Nc2ccc(S(=O)(=O)Nc3cc(OC)c(Cl)cc3OC)c3nonc23)c(OC)cc1Cl [compound 342, N-(4-chloro-2,5-dimethoxyphenyl)-7-([4-chloro-2,5-dimethoxyphenyl]amino)-2,1,3-benzoxadiazole-4-sulfonamide] |
| 1 to 20 µM | < 1 µM | < 1 µM | 1 to 20 µM | 1 to 20 µM | N#Cc1ccc(N2CCN(S(=O)(=O)c3c(Cl)ccc4nonc34)CC2)nc1 [compound 209, 6-{4-[(5-chloro-2,1,3-benzoxadiazol-4-yl)sulfonyl]piperazin-1-yl}nicotinonitrile] |
| 1 to 20 µM |  |  |  |  | O=S(=O)(Nc1cccc2nonc12)c1ccc(Oc2ncc(C(F)(F)F)cc2Cl)cc1 [compound 78, N-2,1,3-benzoxadiazol-4-yl-4-{[3-chloro-5-(trifluoromethyl)pyridin-2-yl]oxy}benzenesulfonamide] |
| 1 to 20 µM | < 1 µM | < 1 µM |  |  | CC(C)(C)c1ccc(-c2ccc([N+](=O)[O-])c3nonc23)cc1 [compound 313, 4-(4-Tert-butylphenyl)-7-nitro-2,1,3-benzoxadiazole] |
| 1 to 20 µM | ≥ 20 µM | ≥ 20 µM | 1 to 20 µM | 1 to 20 µM | N#Cc1cccnc1N1CCN(S(=O)(=O)c2ccc(Cl)c3nonc23)CC1 [compound 170, 2-{4-[(7-chloro-2,1,3-benzoxadiazol-4-yl)sulfonyl]piperazin-1-yl}nicotinomtrile] |
| 1 to 20 µM |  |  |  |  | O=[N+]([O-])c1ccc(Sc2nc3ccccc3s2)c2nonc12 [compound 158, 4-(1,3-benzothiazol-2-ylthio)-7-nitro-2,1,3-benzoxadiazole] |
| 1 to 20 µM |  |  |  |  | O=[N+]([O-])c1ccc(Oc2ccc(S(=O)(=O)Nc3cccc4nonc34)cc2Cl)c(C(F)(F)F)c1 [compound 114, N-2,1,3-benzoxadiazol-4-yl-3-chloro-4-[4-nitro-2-(trifluoromethyl)phenoxy]benzenesulfonamide] |
| 1 to 20 µM |  |  |  |  | O=S(=O)(Nc1cccc2nsnc12)c1ccc(Oc2ccccc2)cc1 [compound 94, N-2,1,3-benzothiadiazol-4-yl-4-phenoxybenzenesulfonamide] |
| < 1 µM |  |  |  |  | O=[N+]([O-])c1ccc(N2CCN(c3ncc(C(F)(F)F)cc3Cl)CC2)c2nonc12 [compound 315, 4-{4-[3-chloro-5-(trifluoromethyl)pyrindin-2-yl]piperazin-1-yl}-7-nitro-2,1,3-benzoxadiazole] |
